Measurements reported in publication PMC11942566, “Next-Generation Analogues of AC265347 as Positive Allosteric Modulators of the Calcium-Sensing Receptor: Pharmacological Investigation of Structural Modifications at the Stereogenic Centre” (International Journal of Molecular Sciences, 2025).
Read-outs that look alike come from different tables or passages of the source.

Key:
[1] = target: T1, wild-type human CaSR (calcium-sensing receptor) (Homo sapiens, UniProt P41180); experiment: Ca2+i mobilisation (Fluo-8), operational model of allosteric modulation; format: cell-based; conditions: for Kb: read-out: pKB ± SEM (KB) (converted)
T1 construct: full-length wild-type, cmyc-tagged
T1 sequence (P41180 20-1078): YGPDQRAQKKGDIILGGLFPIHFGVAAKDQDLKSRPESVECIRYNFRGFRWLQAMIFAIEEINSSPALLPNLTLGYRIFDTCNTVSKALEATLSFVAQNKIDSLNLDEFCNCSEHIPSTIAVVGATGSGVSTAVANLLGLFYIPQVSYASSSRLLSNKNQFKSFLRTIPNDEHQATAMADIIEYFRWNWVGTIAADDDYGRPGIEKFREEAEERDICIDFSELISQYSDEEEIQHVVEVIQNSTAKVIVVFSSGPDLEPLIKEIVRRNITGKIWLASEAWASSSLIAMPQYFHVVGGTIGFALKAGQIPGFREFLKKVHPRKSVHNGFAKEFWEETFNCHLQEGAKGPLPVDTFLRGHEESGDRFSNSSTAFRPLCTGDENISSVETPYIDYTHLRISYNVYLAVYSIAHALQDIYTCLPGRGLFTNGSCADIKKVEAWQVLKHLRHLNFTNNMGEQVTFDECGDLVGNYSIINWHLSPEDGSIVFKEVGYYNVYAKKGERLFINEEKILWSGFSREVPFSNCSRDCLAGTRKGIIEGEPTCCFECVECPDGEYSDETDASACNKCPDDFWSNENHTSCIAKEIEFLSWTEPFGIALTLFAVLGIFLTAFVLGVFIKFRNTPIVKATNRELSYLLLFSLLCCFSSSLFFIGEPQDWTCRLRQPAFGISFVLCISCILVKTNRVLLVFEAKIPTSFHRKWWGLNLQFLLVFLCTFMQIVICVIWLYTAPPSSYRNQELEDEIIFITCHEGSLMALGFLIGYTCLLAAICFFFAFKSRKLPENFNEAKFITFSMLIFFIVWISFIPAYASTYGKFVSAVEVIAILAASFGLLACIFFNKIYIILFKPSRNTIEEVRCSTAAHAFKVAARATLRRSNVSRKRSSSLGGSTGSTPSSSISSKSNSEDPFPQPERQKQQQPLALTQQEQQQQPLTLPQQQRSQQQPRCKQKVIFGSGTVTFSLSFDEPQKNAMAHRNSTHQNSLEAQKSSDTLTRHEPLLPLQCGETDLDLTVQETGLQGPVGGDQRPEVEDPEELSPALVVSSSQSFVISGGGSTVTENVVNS
Description: Ca2+i mobilisation (Fluo-8), operational model of allosteric modulation on wild-type human CaSR (calcium-sensing receptor)

[2] = target: T1, wild-type human CaSR (calcium-sensing receptor); experiment: Ca2+i mobilisation (Fluo-8), four-parameter sigmoidal fit with shared Hill slope; format: cell-based; conditions: positive allosteric modulation of Ca2+o response, pH 7.4, 37 °C; KB not determinable
[3] = functional affinity estimate (from pKB), positive allosteric modulator, allosteric site, Ca2+o as orthosteric agonist, pH 7.4, 37 °C, reanalysis of the authors' previously published data, cited from earlier work

C=CC(O)(c1nc2ccccc2s1)c1ccc(C)cc1C (racemic) [7b, 1-(Benzo[d]thiazol-2-yl)-1-(2,4-dimethylphenyl)prop-2-en-1-ol]
Kb [1]: 8.1 µM

Cc1ccc(C(C)(O)c2nc3ccccc3s2)c(C)c1 (racemic) [compound 1, 1-(Benzo[d]thiazol-2-yl)-1-(2,4-dimethylphenyl)ethan-1-ol]
Kb [1, 3]: 3.4 µM

Cc1ccc(C(O)(c2nc3ccccc3s2)C(F)(F)F)c(C)c1 (racemic) [compound 5, 5]
Kb [1, 3]: 5 µM

Cc1ccc(C2(c3nc4ccccc4s3)CO2)c(C)c1 (racemic) [compound 6, 2-(2-(2,4-Dimethylphenyl)oxiran-2-yl)benzo[d]thiazole]
Kb [1]: 29 µM

Cc1ccc(C2(c3nc4ccccc4s3)CCO2)c(C)c1 (racemic) [compound 7, 2-(2-(2,4-Dimethylphenyl)oxetan-2-yl)benzo[d]thiazole]
pKB ± SEM (KB, μM) ([1]; functional affinity estimate (from pKB), positive allosteric modulator, allosteric site, Ca2+o as orthosteric agonist, pH 7.4, 37 °C, unreliable (extrapolated beyond highest tested concentration 30 μM)): 123 μM

COC(C)(c1nc2ccccc2s1)c1ccc(C)cc1C (racemic) [compound 8, 2-(1-(2,4-Dimethylphenyl)-1-methoxyethyl)benzo[d]thiazole]
fold increase in Ca2+o potency (pEC50) at 10 μM [2]: 1.8 fold

Cc1ccc(C(C)(F)c2nc3ccccc3s2)c(C)c1 (racemic) [compound 9, 2-(1-(2,4-Dimethylphenyl)-1-fluoroethyl)benzo[d]thiazole]
Kb [1]: 10 µM
